Data as given in US4639466A, “3',6-diisopentenyl-2',4'-dihydroxy-5,7-dimethoxy-isoflavan and related compounds useful as anxiolytic agents and avermectin antidotes” (Merck & Co., Inc., priority 1984, dated 1987).
Like-named read-outs stand apart in the source and are kept apart here. Each block holds one molecule with its values, some of them ahead of it.

How the values were obtained:
benzodiazepine receptors [1] = assay: Benzodiazepine receptor binding assay (BARIN; effect on ^3 H-diazepam binding)
C. elegans = C. elegans motility assay (effect on avermectin activity, % active worms); type: in vivo
Source text: 1. The C. elegans motility assay:
The procedures for the C. elegans motility assay is described in S. S. Pong et al., J. NuroChem. 34, 351-358, 1980.

benzodiazepine receptors [2] = conditions: known from prior art; cited from earlier work

effect on benzodiazepine binding (benzodiazepine receptors [1]): stimulate the benzodiazepine-binding
EC50 (benzodiazepine receptors [1]; active compound (12 mg, k'=8) isolated from CH2 Cl2 extract of G. uralensis by HPLC): 2 to 3 µg/mL
EC50 for stimulation of benzodiazepine-binding (benzodiazepine receptors [1]; stimulation of binding): 3 µg/mL
SMILES: COc1cc2c(c(OC)c1CC=C(C)C)CC(c1ccc(O)c(CC=C(C)C)c1O)CO2 (centres unmarked) [3',6-diisopentenyl-2',4'-dihydroxy-5,7-dimethoxyisoflavan]
antagonism of avermectin in the C. elegans motility assay (C. elegans; in vivo): potent antagonist of avermectin
% active worms (C. elegans; isoflavan 5 μg/ml, avermectin 0 μg/ml): 97%
% active worms (C. elegans; isoflavan 5 μg/ml, avermectin 0.156 μg/ml): 60%
% active worms (C. elegans; isoflavan 5 μg/ml, avermectin 0.313 μg/ml): 60%
% active worms (C. elegans; isoflavan 5 μg/ml, avermectin 0.625 μg/ml): 77%
% active worms (C. elegans; isoflavan 25 μg/ml, avermectin 0 μg/ml): 95%
% active worms (C. elegans; isoflavan 25 μg/ml, avermectin 0.156 μg/ml): 88%
% active worms (C. elegans; isoflavan 25 μg/ml, avermectin 0.313 μg/ml): 65%
% active worms (C. elegans; isoflavan 25 μg/ml, avermectin 0.625 μg/ml): 91%
blocking the highest dose of avermectin (C. elegans; lowest dose level 5 μg/ml, avermectin 0.625 μg/ml): almost fully effective

SMILES: CCCCNc1c(C(=O)OCC)c(C)nc2c1cnn2CC [tracazolate]
effect on benzodiazepine binding (benzodiazepine receptors [2]): stimulates benzodiazepine binding

SMILES: CC[C@H](C)[C@H]1O[C@]2(C=C[C@@H]1C)C[C@@H]1C[C@@H](C/C=C(\C)[C@@H](O[C@H]3C[C@H](OC)[C@@H](O[C@H]4C[C@H](OC)[C@@H](O)[C@H](C)O4)[C@H](C)O3)[C@@H](C)/C=C/C=C3\CO[C@@H]4[C@H](O)C(C)=C[C@@H](C(=O)O1)[C@]34O)O2 [avermectin]
% active worms (C. elegans; isoflavan 0 μg/ml, avermectin 0.156 μg/ml (avermectin alone)): 85%
% active worms (C. elegans; isoflavan 0 μg/ml, avermectin 0.313 μg/ml (avermectin alone)): 20%
% active worms (C. elegans; isoflavan 0 μg/ml, avermectin 0.625 μg/ml (avermectin alone)): 4%
